# Measured values as given in the supplement of paper PMC4862054.
# System: MDA-MB-231
# Assay: normalised response (% of control), CellTox Green; higher = less cell death (100 = DMSO, 0 = benzethonium chloride kill control)
# Settings: incubation time: 72 h
# Summary of the method: (§1)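 Every value is a normalised signal taken at one concentration of a dilution series. Compound was placed in 384-well plates at 5 concentrations in 10-fold steps over a compound-specific 10,000-fold range, and 20 µl of breast cancer cell suspension was seeded onto it. After 72 h, CellTox Green fluorescence (485/520 nm) was measured first and CellTiter-Glo luminescence second, following 10 min at room temperature. Each plate was scaled to 0.1 % DMSO (100) and a positive kill control (0).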
row,SMILES,normalised response [%]
1,C=CC(=O)N1CCC[C@@H](n2nc(-c3ccc(Oc4ccccc4)cc3)c3c(N)ncnc32)C1 [Ibrutinib] (100 nM),111

# System: MDA-MB-436
# Assay: as above
# Settings: incubation time: 72 h
# Summary of the method: as §1
row,SMILES,normalised response [%]
1,Nc1ccccc1NC(=O)c1ccc(CNC(=O)OCc2cccnc2)cc1 [Entinostat] (1000 nM),86.4
2,CNC(=O)c1cc(Oc2ccc(NC(=O)Nc3cc(C(C)(C)C)nn3-c3ccc4ncccc4c3)c(F)c2)ccn1 [Rebastinib] (100 nM),97.3
3,Cc1ccc(-c2cc(C(F)(F)F)nn2-c2ccc(S(N)(=O)=O)cc2)cc1 [Celecoxib] (1000 nM),105
4,CCN(CC)CCCC(C)Nc1c2ccc(Cl)cc2nc2ccc(OC)cc12 (stereo unspecified) [Mepacrine] (5000 nM),99.8
5,C=CC(=O)Nc1cc2c(Nc3ccc(F)c(Cl)c3)ncnc2cc1OCCCN1CCOCC1 [Canertinib] (1000 nM),88.9
6,C=CC(=O)N1CCC[C@@H](n2nc(-c3ccc(Oc4ccccc4)cc3)c3c(N)ncnc32)C1 [Ibrutinib] (100 nM),92.1

# System: HCC1937
# Assay: as above
# Settings: incubation time: 72 h
# Summary of the method: as §1
row,SMILES,normalised response [%]
1,Nc1nc(F)nc2c1ncn2[C@@H]1O[C@H](CO)[C@@H](O)[C@@H]1O [Fludarabine] (1000 nM),88.6
2,Nc1ccccc1NC(=O)c1ccc(CNC(=O)OCc2cccnc2)cc1 [Entinostat] (1000 nM),116
3,CNC(=O)c1cc(Oc2ccc(NC(=O)Nc3cc(C(C)(C)C)nn3-c3ccc4ncccc4c3)c(F)c2)ccn1 [Rebastinib] (100 nM),112
4,Cc1ccc(-c2cc(C(F)(F)F)nn2-c2ccc(S(N)(=O)=O)cc2)cc1 [Celecoxib] (1000 nM),111
5,CCN(CC)CCCC(C)Nc1c2ccc(Cl)cc2nc2ccc(OC)cc12 (stereo unspecified) [Mepacrine] (5000 nM),105
6,C[C@H]1C[C@@H]2[C@H]([C@@H](O)C[C@@]3(C)[C@H]2CC[C@]3(O)C(=O)CO)[C@@]2(C)C=CC(=O)C=C12 [Methylprednisolone] (1000 nM),127

# System: MFM-223
# Assay: as above
# Settings: incubation time: 72 h
# Summary of the method: as §1
row,SMILES,normalised response [%]
1,Nc1nc(F)nc2c1ncn2[C@@H]1O[C@H](CO)[C@@H](O)[C@@H]1O [Fludarabine] (1000 nM),101
2,Nc1ccccc1NC(=O)c1ccc(CNC(=O)OCc2cccnc2)cc1 [Entinostat] (1000 nM),90.1
3,CNC(=O)c1cc(Oc2ccc(NC(=O)Nc3cc(C(C)(C)C)nn3-c3ccc4ncccc4c3)c(F)c2)ccn1 [Rebastinib] (100 nM),95.3
4,Cc1ccc(-c2cc(C(F)(F)F)nn2-c2ccc(S(N)(=O)=O)cc2)cc1 [Celecoxib] (1000 nM),96
5,CCN(CC)CCCC(C)Nc1c2ccc(Cl)cc2nc2ccc(OC)cc12 (stereo unspecified) [Mepacrine] (5000 nM),97.6
6,C=CC(=O)Nc1cc2c(Nc3ccc(F)c(Cl)c3)ncnc2cc1OCCCN1CCOCC1 [Canertinib] (1000 nM),106
7,CC[C@H](Nc1ncnc2[nH]cnc12)c1nc2cccc(F)c2c(=O)n1-c1ccccc1 [GS-1101] (1000 nM),101

# System: Hs578T
# Assay: as above
# Settings: incubation time: 72 h
# Summary of the method: as §1
row,SMILES,normalised response [%]
1,Nc1nc(F)nc2c1ncn2[C@@H]1O[C@H](CO)[C@@H](O)[C@@H]1O [Fludarabine] (1000 nM),50.2
2,Nc1ccccc1NC(=O)c1ccc(CNC(=O)OCc2cccnc2)cc1 [Entinostat] (1000 nM),75
3,CNC(=O)c1cc(Oc2ccc(NC(=O)Nc3cc(C(C)(C)C)nn3-c3ccc4ncccc4c3)c(F)c2)ccn1 [Rebastinib] (100 nM),98.8
4,CCN(CC)CCCC(C)Nc1c2ccc(Cl)cc2nc2ccc(OC)cc12 (stereo unspecified) [Mepacrine] (5000 nM),84.3
5,C=CC(=O)Nc1cc2c(Nc3ccc(F)c(Cl)c3)ncnc2cc1OCCCN1CCOCC1 [Canertinib] (1000 nM),109
6,C[C@H]1C[C@@H]2[C@H]([C@@H](O)C[C@@]3(C)[C@H]2CC[C@]3(O)C(=O)CO)[C@@]2(C)C=CC(=O)C=C12 [Methylprednisolone] (1000 nM),105
7,CC[C@H](Nc1ncnc2[nH]cnc12)c1nc2cccc(F)c2c(=O)n1-c1ccccc1 [GS-1101] (1000 nM),93.8
8,C=CC(=O)N1CCC[C@@H](n2nc(-c3ccc(Oc4ccccc4)cc3)c3c(N)ncnc32)C1 [Ibrutinib] (100 nM),56.5

# System: BT-474
# Assay: as above
# Settings: incubation time: 72 h
# Summary of the method: as §1
row,SMILES,normalised response [%]
1,Nc1nc(F)nc2c1ncn2[C@@H]1O[C@H](CO)[C@@H](O)[C@@H]1O [Fludarabine] (1000 nM),102
2,Nc1ccccc1NC(=O)c1ccc(CNC(=O)OCc2cccnc2)cc1 [Entinostat] (1000 nM),99.8
3,CNC(=O)c1cc(Oc2ccc(NC(=O)Nc3cc(C(C)(C)C)nn3-c3ccc4ncccc4c3)c(F)c2)ccn1 [Rebastinib] (100 nM),98.6
4,Cc1ccc(-c2cc(C(F)(F)F)nn2-c2ccc(S(N)(=O)=O)cc2)cc1 [Celecoxib] (1000 nM),101
5,CCN(CC)CCCC(C)Nc1c2ccc(Cl)cc2nc2ccc(OC)cc12 (stereo unspecified) [Mepacrine] (5000 nM),97.2
6,C=CC(=O)Nc1cc2c(Nc3ccc(F)c(Cl)c3)ncnc2cc1OCCCN1CCOCC1 [Canertinib] (1000 nM),83.2
7,C[C@H]1C[C@@H]2[C@H]([C@@H](O)C[C@@]3(C)[C@H]2CC[C@]3(O)C(=O)CO)[C@@]2(C)C=CC(=O)C=C12 [Methylprednisolone] (1000 nM),98.6
8,CC[C@H](Nc1ncnc2[nH]cnc12)c1nc2cccc(F)c2c(=O)n1-c1ccccc1 [GS-1101] (1000 nM),98.7
9,C=CC(=O)N1CCC[C@@H](n2nc(-c3ccc(Oc4ccccc4)cc3)c3c(N)ncnc32)C1 [Ibrutinib] (100 nM),83.1

# System: MCF-10A
# Assay: as above
# Settings: incubation time: 72 h
# Summary of the method: as §1
row,SMILES,normalised response [%]
1,Nc1nc(F)nc2c1ncn2[C@@H]1O[C@H](CO)[C@@H](O)[C@@H]1O [Fludarabine] (1000 nM),79.7
2,Nc1ccccc1NC(=O)c1ccc(CNC(=O)OCc2cccnc2)cc1 [Entinostat] (1000 nM),90.1
3,Cc1ccc(-c2cc(C(F)(F)F)nn2-c2ccc(S(N)(=O)=O)cc2)cc1 [Celecoxib] (1000 nM),81.4
4,CCN(CC)CCCC(C)Nc1c2ccc(Cl)cc2nc2ccc(OC)cc12 (stereo unspecified) [Mepacrine] (5000 nM),99.3
5,C=CC(=O)Nc1cc2c(Nc3ccc(F)c(Cl)c3)ncnc2cc1OCCCN1CCOCC1 [Canertinib] (1000 nM),80.4
6,C[C@H]1C[C@@H]2[C@H]([C@@H](O)C[C@@]3(C)[C@H]2CC[C@]3(O)C(=O)CO)[C@@]2(C)C=CC(=O)C=C12 [Methylprednisolone] (1000 nM),108
7,CC[C@H](Nc1ncnc2[nH]cnc12)c1nc2cccc(F)c2c(=O)n1-c1ccccc1 [GS-1101] (1000 nM),112
8,C=CC(=O)N1CCC[C@@H](n2nc(-c3ccc(Oc4ccccc4)cc3)c3c(N)ncnc32)C1 [Ibrutinib] (100 nM),101

# System: MDA-MB-453
# Assay: as above
# Settings: incubation time: 72 h
# Summary of the method: as §1
row,SMILES,normalised response [%]
1,Nc1nc(F)nc2c1ncn2[C@@H]1O[C@H](CO)[C@@H](O)[C@@H]1O [Fludarabine] (1000 nM),101
2,Nc1ccccc1NC(=O)c1ccc(CNC(=O)OCc2cccnc2)cc1 [Entinostat] (1000 nM),102
3,CNC(=O)c1cc(Oc2ccc(NC(=O)Nc3cc(C(C)(C)C)nn3-c3ccc4ncccc4c3)c(F)c2)ccn1 [Rebastinib] (100 nM),101
4,Cc1ccc(-c2cc(C(F)(F)F)nn2-c2ccc(S(N)(=O)=O)cc2)cc1 [Celecoxib] (1000 nM),105
5,CCN(CC)CCCC(C)Nc1c2ccc(Cl)cc2nc2ccc(OC)cc12 (stereo unspecified) [Mepacrine] (5000 nM),107
6,C=CC(=O)Nc1cc2c(Nc3ccc(F)c(Cl)c3)ncnc2cc1OCCCN1CCOCC1 [Canertinib] (1000 nM),102
7,C[C@H]1C[C@@H]2[C@H]([C@@H](O)C[C@@]3(C)[C@H]2CC[C@]3(O)C(=O)CO)[C@@]2(C)C=CC(=O)C=C12 [Methylprednisolone] (1000 nM),98.5
8,CC[C@H](Nc1ncnc2[nH]cnc12)c1nc2cccc(F)c2c(=O)n1-c1ccccc1 [GS-1101] (1000 nM),107
9,C=CC(=O)N1CCC[C@@H](n2nc(-c3ccc(Oc4ccccc4)cc3)c3c(N)ncnc32)C1 [Ibrutinib] (100 nM),104

# System: DU-4475
# Assay: as above
# Settings: incubation time: 72 h
# Summary of the method: as §1
row,SMILES,normalised response [%]
1,Nc1nc(F)nc2c1ncn2[C@@H]1O[C@H](CO)[C@@H](O)[C@@H]1O [Fludarabine] (1000 nM),105
2,Nc1ccccc1NC(=O)c1ccc(CNC(=O)OCc2cccnc2)cc1 [Entinostat] (1000 nM),99.9
3,CNC(=O)c1cc(Oc2ccc(NC(=O)Nc3cc(C(C)(C)C)nn3-c3ccc4ncccc4c3)c(F)c2)ccn1 [Rebastinib] (100 nM),103
4,Cc1ccc(-c2cc(C(F)(F)F)nn2-c2ccc(S(N)(=O)=O)cc2)cc1 [Celecoxib] (1000 nM),101
5,CCN(CC)CCCC(C)Nc1c2ccc(Cl)cc2nc2ccc(OC)cc12 (stereo unspecified) [Mepacrine] (5000 nM),102
6,C=CC(=O)Nc1cc2c(Nc3ccc(F)c(Cl)c3)ncnc2cc1OCCCN1CCOCC1 [Canertinib] (1000 nM),104
7,C[C@H]1C[C@@H]2[C@H]([C@@H](O)C[C@@]3(C)[C@H]2CC[C@]3(O)C(=O)CO)[C@@]2(C)C=CC(=O)C=C12 [Methylprednisolone] (1000 nM),103
8,CC[C@H](Nc1ncnc2[nH]cnc12)c1nc2cccc(F)c2c(=O)n1-c1ccccc1 [GS-1101] (1000 nM),96.9
9,C=CC(=O)N1CCC[C@@H](n2nc(-c3ccc(Oc4ccccc4)cc3)c3c(N)ncnc32)C1 [Ibrutinib] (100 nM),103

# System: CAL-148
# Assay: as above
# Settings: incubation time: 72 h
# Summary of the method: as §1
row,SMILES,normalised response [%]
1,Nc1nc(F)nc2c1ncn2[C@@H]1O[C@H](CO)[C@@H](O)[C@@H]1O [Fludarabine] (1000 nM),99.5
2,Nc1ccccc1NC(=O)c1ccc(CNC(=O)OCc2cccnc2)cc1 [Entinostat] (1000 nM),98.3
3,CNC(=O)c1cc(Oc2ccc(NC(=O)Nc3cc(C(C)(C)C)nn3-c3ccc4ncccc4c3)c(F)c2)ccn1 [Rebastinib] (100 nM),84
4,Cc1ccc(-c2cc(C(F)(F)F)nn2-c2ccc(S(N)(=O)=O)cc2)cc1 [Celecoxib] (1000 nM),104
5,CCN(CC)CCCC(C)Nc1c2ccc(Cl)cc2nc2ccc(OC)cc12 (stereo unspecified) [Mepacrine] (5000 nM),71.8
6,C=CC(=O)Nc1cc2c(Nc3ccc(F)c(Cl)c3)ncnc2cc1OCCCN1CCOCC1 [Canertinib] (1000 nM),100
7,C[C@H]1C[C@@H]2[C@H]([C@@H](O)C[C@@]3(C)[C@H]2CC[C@]3(O)C(=O)CO)[C@@]2(C)C=CC(=O)C=C12 [Methylprednisolone] (1000 nM),107
8,CC[C@H](Nc1ncnc2[nH]cnc12)c1nc2cccc(F)c2c(=O)n1-c1ccccc1 [GS-1101] (1000 nM),80.2
9,C=CC(=O)N1CCC[C@@H](n2nc(-c3ccc(Oc4ccccc4)cc3)c3c(N)ncnc32)C1 [Ibrutinib] (100 nM),99.6

# System: CAL-85-1
# Assay: as above
# Settings: incubation time: 72 h
# Summary of the method: as §1
row,SMILES,normalised response [%]
1,Nc1nc(F)nc2c1ncn2[C@@H]1O[C@H](CO)[C@@H](O)[C@@H]1O [Fludarabine] (1000 nM),109
2,Nc1ccccc1NC(=O)c1ccc(CNC(=O)OCc2cccnc2)cc1 [Entinostat] (1000 nM),107
3,CNC(=O)c1cc(Oc2ccc(NC(=O)Nc3cc(C(C)(C)C)nn3-c3ccc4ncccc4c3)c(F)c2)ccn1 [Rebastinib] (100 nM),103
4,Cc1ccc(-c2cc(C(F)(F)F)nn2-c2ccc(S(N)(=O)=O)cc2)cc1 [Celecoxib] (1000 nM),104
5,CCN(CC)CCCC(C)Nc1c2ccc(Cl)cc2nc2ccc(OC)cc12 (stereo unspecified) [Mepacrine] (5000 nM),106
6,C=CC(=O)Nc1cc2c(Nc3ccc(F)c(Cl)c3)ncnc2cc1OCCCN1CCOCC1 [Canertinib] (1000 nM),73.3
7,C[C@H]1C[C@@H]2[C@H]([C@@H](O)C[C@@]3(C)[C@H]2CC[C@]3(O)C(=O)CO)[C@@]2(C)C=CC(=O)C=C12 [Methylprednisolone] (1000 nM),104
8,CC[C@H](Nc1ncnc2[nH]cnc12)c1nc2cccc(F)c2c(=O)n1-c1ccccc1 [GS-1101] (1000 nM),94.1
9,C=CC(=O)N1CCC[C@@H](n2nc(-c3ccc(Oc4ccccc4)cc3)c3c(N)ncnc32)C1 [Ibrutinib] (100 nM),84.1
